# Assay results published in the Kinase Knowledgebase extract (Sharma et al. 2016).
# Biological target: MAPK14 (UniProt Q16539)
# Assay: Inhibition of p38 Kinase Activity
# Settings: not given
# Sequence of MAPK14 (Q16539 whole entry, looked up): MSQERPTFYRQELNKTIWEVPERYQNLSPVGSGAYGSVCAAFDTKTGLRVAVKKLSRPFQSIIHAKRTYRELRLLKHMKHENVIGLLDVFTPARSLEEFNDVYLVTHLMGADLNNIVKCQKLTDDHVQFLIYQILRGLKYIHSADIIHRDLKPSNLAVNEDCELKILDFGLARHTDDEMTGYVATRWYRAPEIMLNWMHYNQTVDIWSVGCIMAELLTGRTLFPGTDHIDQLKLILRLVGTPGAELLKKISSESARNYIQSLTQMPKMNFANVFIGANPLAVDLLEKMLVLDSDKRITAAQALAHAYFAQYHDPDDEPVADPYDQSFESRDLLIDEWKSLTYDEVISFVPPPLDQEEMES
row,IC50,Compound
1,> 30 µM,O=C(NCc1ccc(S(=O)(=O)NNC(=O)c2csc(-c3ccc(C4SCCS4)cc3)n2)s1)c1ccc(Cl)cc1
2,> 30 µM,NC(=O)c1cccn(Cc2ccc(S(=O)(=O)NNC(=O)CCCNc3ncc(C(F)(F)F)cc3Cl)s2)c1=O
3,> 30 µM,O=C(CCCNc1ncc(C(F)(F)F)cc1Cl)NNS(=O)(=O)c1ccc(CNC(=O)c2ccc(Cl)cc2)cc1
4,> 30 µM,O=C(CCCNc1ncc(C(F)(F)F)cc1Cl)NNS(=O)(=O)c1ccc(CNC(=O)c2ccccc2O)s1
5,> 30 µM,O=C(NCc1ccc(S(=O)(=O)NNC(=O)c2csc(COc3ccccc3Cl)n2)s1)c1ccc(Cl)cc1

# Biological target: MAPK14 (UniProt Q16539)
# Assay: MAPK14 Kinase Inhibition
# Settings: not given
row,Compound,IC50
1,Nc1nccc(-c2cccnc2-c2ccc(F)cc2)n1,< 50 µM
2,COc1nccc(-c2cccnc2-c2ccc(F)cc2)n1,< 50 µM
3,CSc1nccc(-c2cccnc2-c2ccc(F)cc2)n1,< 50 µM

# More lines, now with the values ahead:
row,IC50,Compound
1,< 50 µM,Cc1ccccc1Nc1nccc(-c2cccnc2-c2ccc(F)cc2)n1
2,< 50 µM,Fc1ccc(-c2ncccc2-c2ccnc(Oc3ccccc3)n2)cc1

# Biological target: EGFR (human) (UniProt P00533)
# Assay: not given
# Settings: not given
# Sequence of EGFR (human) (P00533 whole entry, looked up): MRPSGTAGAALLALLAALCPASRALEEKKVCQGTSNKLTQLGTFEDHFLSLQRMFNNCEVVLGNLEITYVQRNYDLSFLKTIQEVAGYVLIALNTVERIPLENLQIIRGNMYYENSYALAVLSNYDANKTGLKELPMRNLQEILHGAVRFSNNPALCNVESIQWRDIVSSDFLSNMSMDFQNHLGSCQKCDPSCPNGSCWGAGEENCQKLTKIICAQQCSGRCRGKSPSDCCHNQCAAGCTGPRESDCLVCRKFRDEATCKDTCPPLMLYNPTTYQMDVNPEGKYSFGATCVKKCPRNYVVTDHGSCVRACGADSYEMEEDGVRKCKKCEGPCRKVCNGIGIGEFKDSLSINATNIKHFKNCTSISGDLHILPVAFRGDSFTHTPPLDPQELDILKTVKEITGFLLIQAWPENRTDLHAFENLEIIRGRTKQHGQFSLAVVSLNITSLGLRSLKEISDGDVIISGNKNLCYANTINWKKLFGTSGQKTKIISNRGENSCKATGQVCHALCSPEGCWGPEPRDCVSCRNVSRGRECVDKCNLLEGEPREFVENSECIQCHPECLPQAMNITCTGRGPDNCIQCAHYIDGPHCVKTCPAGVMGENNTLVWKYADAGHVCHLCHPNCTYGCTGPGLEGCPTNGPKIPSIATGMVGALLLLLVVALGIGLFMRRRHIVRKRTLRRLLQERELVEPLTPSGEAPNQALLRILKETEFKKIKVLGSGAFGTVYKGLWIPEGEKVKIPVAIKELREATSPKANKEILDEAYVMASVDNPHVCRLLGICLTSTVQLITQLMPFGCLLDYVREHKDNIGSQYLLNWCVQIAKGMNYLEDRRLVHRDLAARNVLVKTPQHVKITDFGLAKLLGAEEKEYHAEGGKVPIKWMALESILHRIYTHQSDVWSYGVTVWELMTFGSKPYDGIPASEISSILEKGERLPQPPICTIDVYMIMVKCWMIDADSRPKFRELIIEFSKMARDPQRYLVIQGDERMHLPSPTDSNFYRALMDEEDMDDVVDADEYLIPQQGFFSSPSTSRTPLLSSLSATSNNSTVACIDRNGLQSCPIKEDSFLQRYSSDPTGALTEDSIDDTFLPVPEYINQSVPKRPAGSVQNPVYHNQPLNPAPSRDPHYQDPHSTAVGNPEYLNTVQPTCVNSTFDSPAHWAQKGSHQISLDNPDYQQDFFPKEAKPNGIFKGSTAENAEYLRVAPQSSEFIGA
row,IC50,Compound
1,0.022 µg/mL,OCCNCC1COc2cc3ncnc(Nc4cccc(Br)c4)c3cc2O1 (stereo not given)
2,0.046 µg/mL,Brc1cccc(Nc2ncnc3cc4c(cc23)OC(CN2CCOCC2)CO4)c1 (stereo not given)
3,0.058 µg/mL,CN1CCN(CC2COc3cc4ncnc(Nc5cccc(Br)c5)c4cc3O2)CC1 (stereo not given)
4,0.021 µg/mL,OCCN(CCO)CC1COc2cc3ncnc(Nc4cccc(Br)c4)c3cc2O1 (stereo not given)

# Biological target: EGFR (human) (UniProt P00533)
# Assay: not given
# Settings: a431
row,Compound,IC50
1,COc1cccc(Nc2nc(N)nc3[nH]c4cccc(Cl)c4c23)c1,167 µM
2,CC(C)c1ccc(Nc2nc(NC(=O)C(C)(C)C)nc3[nH]c4cccc(Cl)c4c23)cc1,> 250 µM
3,CC(C)(C)C(=O)Nc1nc(Nc2cccc(F)c2)c2c(n1)[nH]c1cccc(Cl)c12,> 250 µM

# Results, then the compound that gave them:
row,IC50,Compound
1,55 µM,CC(C)(C)C(=O)Nc1nc(Nc2ccc(Cl)cc2)c2c(n1)[nH]c1cccc(Cl)c12
2,44.1 µM,Nc1nc(Nc2ccc(Cl)cc2)c2c(n1)[nH]c1cccc(Cl)c12

# Biological target: EGFR (mouse) (UniProt P00533)
# Assay: not given
# Settings: swiss 3t3 fibroblast
row,Compound,IC50
1,Cn1c(SSc2c(C(=O)Nc3ccccc3)c3ccccc3n2C)c(C(=O)Nc2ccccc2)c2ccccc21,> 100 µM
2,Cn1c(SSc2c(C(=O)Nc3ccccc3)c3cccnc3n2C)c(C(=O)Nc2ccccc2)c2cccnc21,> 25 µM
3,COc1ccc2c(C(=O)Nc3ccccc3)c(SSc3c(C(=O)Nc4ccccc4)c4ccc(OC)cc4n3C)n(C)c2c1,> 100 µM
4,COc1cccc2c(C(=O)Nc3ccccc3)c(SSc3c(C(=O)Nc4ccccc4)c4cccc(OC)c4n3C)n(C)c12,> 100 µM
5,CN1C(=S)C(C(=O)Nc2ccccc2)c2ccccc21 (stereo not given),> 100 µM

# Biological target: ROCK2 (UniProt O75116)
# Assay: Inhibition of ROCK2 Kinase Activity
# Settings: not given
row,IC50,Compound
1,5 to 10 µM,N#C/C(=C1/Nc2ccccc2S1)c1ccnc(NCCc2cccnc2)n1
2,0.6 µM,NS(=O)(=O)c1ccc(Nc2nc(OCC3CCCCC3)c3nc[nH]c3n2)cc1

# Same assay, conditions: concentration not given here
row,inhibition,Compound
1,-18%,Oc1cc2nc(-c3cccs3)c(-c3cccs3)nc2cc1O
2,> 50%,NC(=O)c1c(NC(=O)Nc2ccccc2)sc2cc(O)ccc12

# Biological target: ROCK2 (human) (UniProt O75116)
# Assay: Inhibition of ROCK2 Kinase Activity
# Settings: concentration not given here
row,inhibition,Compound
1,-1%,O=C(NCc1ccc(S(=O)(=O)N2CCC(n3nnc4ccccc43)CC2)s1)c1ccc(Cl)cc1

# Biological target: EGFR (UniProt P00533)
# Assay: not given
# Settings: concentration not given here
# Sequence of EGFR (P00533 whole entry, looked up): as above
row,inhibition,Compound
1,> 50%,NC(=O)c1c(NC(=O)Nc2ccccc2)sc2cc(O)ccc12

# Biological target: EGFR (murine) (UniProt P00533)
# Assay: not given
# Settings: f/l herc cells
# Sequence of EGFR (murine) (P00533 whole entry, looked up): as above
row,IC50,Compound
1,0.02 µM,CCOC(=O)CN1CCC[C@H]1COc1cc2c(Nc3cccc(Br)c3)ncnc2cc1OC
2,0.033 µM,CCOC(=O)CN1CCN(CCCOc2cc3c(Nc4cccc(Br)c4)ncnc3cc2OC)C(O)C1 (stereo not given)
3,0.077 µM,COC(=O)CCC1CN(CC(=O)OC)CCN1CCOc1cc2c(Nc3cccc(Br)c3)ncnc2cc1OC (stereo not given)
4,0.07 µM,CCOC(=O)CN(CCOc1cc2c(Nc3cccc(Br)c3)ncnc2cc1OC)CC(=O)OCC
5,0.1 µM,CCOC(=O)CN(C)CCOc1cc2c(Nc3cccc(Br)c3)ncnc2cc1OC

# Biological target: PIK3CG (UniProt P48736)
# Assay: Inhibition of PIK3CG Kinase Activity
# Settings: not given
row,IC50,Compound
1,> 10 µM,N#C/C(=C1/Nc2ccccc2S1)c1ccnc(NCCc2cccnc2)n1

# Biological target: MAPK14 (human) (UniProt Q16539)
# Assay: Inhibition of Doubly Phosphorylated MAPK14 Kinase Activity (Biochemical Assay)
# Settings: not given
# Sequence of MAPK14 (human) (Q16539 whole entry, looked up): as the sequence (Q16539 whole entry, looked up) above
row,IC50,Compound
1,0.012 µM,NC(=O)Cc1cccc(-n2nc(-c3ccccc3)cc2NC(=O)Nc2cccc(Cl)c2Cl)c1

# Biological target: MAPK14 (human) (UniProt Q16539)
# Assay: TNF Inhibition (PBMC)
# Settings: not given
row,IC50,Compound
1,0.4 µM,COc1ccc2c(-c3ccncc3)c(-c3ccc(F)cc3)[nH]c2c1
2,> 10 µM,Fc1ccc(-c2[nH]c3ccccc3c2-c2ccncc2)cc1
3,0.2 µM,Nc1ccc2c(-c3ccncc3)c(-c3ccc(F)cc3)[nH]c2c1

# Same assay, conditions: concentration not given here
row,Compound,inhibition
1,CC(=O)OCCCCc1nc(-c2ccncc2)c(-c2ccc(F)cc2)n1COCC[Si](C)(C)C,0%
2,C[Si](C)(C)CCOCn1c(CCCCO)nc(-c2ccncc2)c1-c1ccc(F)cc1,0%

# Biological target: EGFR (UniProt P00533)
# Assay: not given
# Settings: not given
row,IC50,Compound
1,0.2 µM,CN(C)CCCC(=O)N1CCOc2cc3ncc(C#N)c(Nc4ccc(F)c(Cl)c4)c3cc21
2,1 µM,N#Cc1cnc2cc3c(cc2c1Nc1ccc(F)c(Cl)c1)N(C(=O)/C=C/CBr)CCO3.N#Cc1cnc2cc3c(cc2c1Nc1ccc(F)c(Cl)c1)N(C(=O)/C=C/CCl)CCO3
3,0.005 µM,CN(C)CCCCN1CCOc2cc3ncc(C#N)c(Nc4ccc(F)c(Cl)c4)c3cc21
